Experimental data published in patent US8658637B2, “Glucocorticoid mimetics, methods of making them, pharmaceutical compositions and uses thereof” (Boehringer Ingelheim International GmbH, priority 2006, dated 2014).

Key:
[1] = system: IL-6 production in human foreskin fibroblast cells; assay: Inhibition of IL-6 Production in Fibroblasts (Cell Assay for Transrepression); assay type: cell-based; settings: IL-1 stimulated human foreskin fibroblasts; for EC50: read-out: agonistic activity (EC50) by inhibiting IL-6 production in Fibroblasts; for Emax: read-out: efficacy by inhibiting IL-6 production in Fibroblasts
Experimental: 2. Inhibition of IL-6 Production in Fibroblasts (Cell Assay for Transrepression)
Human foreskin fibroblast cells produce IL-6 in response to stimulation by proinflammatory cytokine IL-1.
Human foreskin fibroblast cells (ATCC Cat. No. CRL-2429) are plated on 96 well plates at 5,000 cells per well the day before use, in Iscove's Modified Dulbecco's Media (GibcoBRL Life Technologies Cat. No. 12440-053) supplemented with 10% charcoal filtered FBS (Clonetech Cat. No. SH30068) and Gentamycin (GibcoBRL Life Technologies Cat. No. 15710-064). On the next day, media in the wells is replaced with fresh media. Cells are treated with IL-1 (rhIL-1α, R&D Systems Cat. No. 200-LA) to a final concentration of 1 ng/mL, and with test compounds to final concentrations of 10^−5 M to 10^−8 M, in a total volume of 200 μL per well. Samples are done in duplicates. […] Positive control wells receive IL-1 only and represent maximum (or 100%) amount of IL-6 production. Plates are incubated at 37° C. overnight (15 to 18 hours), and supernatants are harvested at the end of incubation. IL-6 levels in the supernatants are determined by the ELISA kits for IL-6 (MedSystems Diagnostics GmbH, Vienna, Austria, Cat. No. BMS213TEN) according to manufacture's instructions. The extent of inhibition of IL-6 by test compounds is expressed in percentage relative to positive controls. IC50 values of test compounds are derived by non-linear curve fitting.

| Structure (SMILES) | melting point [°C] | EC50 [1] [nM] | Emax [1] [%] |
| --- | --- | --- | --- |
| OC(c1cnc2c(cnn2-c2ccccc2)c1)(c1c[nH]c2ncccc12)C(F)(F)F (stereo not drawn) | 137 to 141 | – | – |
| OCC(O)Cn1cc(C(O)(c2ccn3c(-c4ccc(F)cc4)ncc3c2)C(F)(F)F)c2ccccc21 (stereo not drawn) [3-(3-{2,2,2-Trifluoro-1-[3-(4-fluorophenyl)imidazo[1,5-a]pyridin-7-yl]-1-hydroxyethyl}indol-1-yl)propane-1,2-diol] | – | ≤ 1000 | > 50 |
| OCC(O)Cn1cc(C(O)(c2ccc3c(cnn3-c3ccc(F)cc3)c2)C(F)(F)F)c2ccc(Br)cc21 (stereo not drawn) [3-(6-Bromo-3-{2,2,2-trifluoro-1-[1-(4-fluorophenyl)-1H-indazol-5-yl]-1-hydroxyethyl}indol-1-yl)propane-1,2-diol] | – | ≤ 1000 | > 50 |
| COc1nccc2c(C(O)(c3ccc4c(cnn4-c4ccc(F)cc4)c3)C(F)(F)F)cn(CC(O)CO)c12 (stereo not drawn) [3-(7-Methoxy-3-{2,2,2-trifluoro-1-[1-(4-fluorophenyl)-1H-indazol-5-yl]-1-hydroxyethyl}pyrrolo[2,3-c]pyridin-1-yl)propane-1,2-diol] | – | ≤ 1000 | > 50 |
| Cc1cc(C(O)(c2ccc3c(cnn3-c3ccc(F)cc3)c2)C(F)(F)F)c[nH]c1=O (stereo not drawn) [3-Methyl-5-{2,2,2-trifluoro-1-[1-(4-fluorophenyl)-1H-indazol-5-yl]-1-hydroxyethyl}-1H-pyridin-2-one] | – | ≤ 1000 | > 50 |
| OCC(O)CCn1cc(C(O)(c2ccc3c(cnn3-c3ccc(F)cc3)c2)C(F)(F)F)c2ccccc21 (stereo not drawn) [4-(3-{2,2,2-Trifluoro-1-[1-(4-fluorophenyl)-1H-indazol-5-yl]-1-hydroxyethyl}indol-1-yl)-butane-1,2-diol] | – | ≤ 1000 | > 50 |
| C=CCn1cc(C(O)(c2ccc3c(cnn3-c3ccc(F)cc3)c2)C(F)(F)F)c2ncn(C)c(=O)c21 (stereo not drawn) [5-Allyl-3-methyl-7-{2,2,2-trifluoro-1-[1-(4-fluorophenyl)-1H-indazol-5-yl]-1-hydroxyethyl}-3,5-dihydropyrrolo[3,2-d]pyrimidin-4-one] | – | ≤ 1000 | > 50 |
| CC(C)NC(=O)n1ncc2cc(C(O)(c3cn(C)c4ccccc34)C(F)(F)F)ccc21 (stereo not drawn) [5-[2,2,2-Trifluoro-1-hydroxy-1-(1-methyl-1H-indol-3-yl)ethyl]indazole-1-carboxylic acid isopropylamide] | – | ≤ 1000 | > 50 |
| Cc1cc(C(O)(c2ccc3c(cnn3-c3ccc(F)cc3)c2)C(F)(F)F)cn(CC(N)=O)c1=O (stereo not drawn) [(3-Methyl-2-oxo-5-{2,2,2-trifluoro-1-[1-(4-fluorophenyl)-1H-indazol-5-yl]-1-hydroxyethyl}-2H-pyridin-1-yl)acetamide] | – | ≤ 1000 | > 50 |
| CCOC(=O)Cn1cc(C(O)(c2ccc3c(cnn3-c3ccc(F)cc3)c2)C(F)(F)F)c2ccccc21 (stereo not drawn) [(3-{2,2,2-Trifluoro-1-[1-(4-fluorophenyl)-1H-indazol-5-yl]-1-hydroxyethyl}indol-1-yl)acetic acid ethyl ester] | – | ≤ 1000 | > 50 |
| O=C(O)Cn1cc(C(O)(c2ccc3c(cnn3-c3ccc(F)cc3)c2)C(F)(F)F)c2ccccc21 (stereo not drawn) [(3-{2,2,2-Trifluoro-1-[1-(4-fluorophenyl)-1H-indazol-5-yl]-1-hydroxyethyl}indol-1-yl)acetic acid] | – | ≤ 1000 | > 50 |
| N#CCn1cc(C(O)(c2ccc3c(cnn3-c3ccc(F)cc3)c2)C(F)(F)F)c2cccnc21 (stereo not drawn) [(3-{2,2,2-Trifluoro-1-[1-(4-fluorophenyl)-1H-indazol-5-yl]-1-hydroxyethyl}pyrrolo[2,3-b]pyridin-1-yl)acetonitrile] | – | ≤ 1000 | > 50 |
| C[C@@H](O)Cn1cc(C(O)(c2ccc3c(cnn3-c3ccc(F)cc3)c2)C(F)(F)F)c2ccccc21 (stereo partly drawn) [(R)-1-(3-{2,2,2-Trifluoro-1-[1-(4-fluorophenyl)-1H-indazol-5-yl]-1-hydroxyethyl}indol-1-yl)propan-2-ol] | – | ≤ 1000 | > 50 |
| C[C@H](O)Cn1cc(C(O)(c2ccc3c(cnn3-c3ccc(F)cc3)c2)C(F)(F)F)c2ccccc21 (stereo partly drawn) [(S)-1-(3-{2,2,2-Trifluoro-1-[1-(4-fluorophenyl)-1H-indazol-5-yl]-1-hydroxyethyl}indol-1-yl)propan-2-ol] | – | ≤ 1000 | > 50 |
| C=CCn1cc(C(O)(c2ccc3c(cnn3-c3ccc(F)cc3)c2)C(F)(F)F)c2ccn(C)c(=O)c21 (stereo not drawn) [Example 75, 1-Allyl-6-methyl-3-{2,2,2-trifluoro-1-[1-(4-fluorophenyl)-1H-indazol-5-yl]-1-hydroxyethyl}-1,6-dihydropyrrolo[2,3-c]pyridin-7-one] | 91 to 93 | – | – |
| CNC(=O)CCn1cc(C(O)(c2ccc3c(cnn3-c3ccc(F)cc3)c2)C(F)(F)F)c2ccccc21 (stereo not drawn) [N-Methyl-3-(3-{2,2,2-trifluoro-1-[1-(4-fluorophenyl)-1H-indazol-5-yl]-1-hydroxyethyl}indol-1-yl)propionamide] | – | ≤ 1000 | > 50 |
